How the values were obtained:
[1] = Solubility of lemuteporfin in the LTS formulation (stirred, sampled, filtered); format: physicochemical; details: for Lemuteporfin content (% w/w), solubility in the formulation of Table 5: filtered
Description: The solution was stirred and samples were removed at various time points, and then filtered to determine the amount of undissolved lemuteporfin. The amount of lemuteporfin that dissolved was approximately 0.048%.
Studies were conducted to determine the effect of certain of the LTS excipients on the solubility of lemuteporfin.

[2] = Apparent solubility of lemuteporfin in various solvents (HPLC); format: physicochemical
Text: The solubility of lemuteporfin in various solvent compositions is shown in the last column of Table 3. All values were obtained analytically by HPLC analysis.
Solubility results for lemuteporfin indicated maximum solubility in solvent-based formulations containing primarily benzyl alcohol. The amount of lemuteporfin that can be solubilized in benzyl alcohol following heating is approximately 2.5% w/w. The addition of other solvents reduces solubility by approximately the amount of the new solvent introduced. Diethylene glycol monoethyl ether (DGME) is about 20% as efficient at dissolving lemuteporfin as benzyl alcohol.

solubility of lemuteporfin in LTS solution system ([1]; isopropyl alcohol removed (data not shown)): 0.07 % w/w
amount of lemuteporfin that dissolved in the Table 5 components ([1]; room temperature): approximately 0.048%
Lemuteporfin content (% w/w), solubility in the formulation of Table 5 ([1]; room temperature, time point 0.17 hours): 0.0241 % w/w
Lemuteporfin content (% w/w), solubility in the formulation of Table 5 ([1]; room temperature, time point 2.47 hours): 0.0482 % w/w
Lemuteporfin content (% w/w), solubility in the formulation of Table 5 ([1]; room temperature, time point 4.37 hours): 0.0453 % w/w
Lemuteporfin content (% w/w), solubility in the formulation of Table 5 ([1]; room temperature, time point 6.37 hours): 0.0463 % w/w
Lemuteporfin content (% w/w), solubility in the formulation of Table 5 ([1]; room temperature, time point 23.5 hours): 0.0370 % w/w
solubility of lemuteporfin in LTS solution system ([1]; with isopropyl alcohol (data not shown)): approximately 0.03 % w/w
solubility of lemuteporfin in LTS solution system ([1]; with polysorbate 80 (data not shown)): 0.037 % w/w
solubility of lemuteporfin in LTS solution system ([1]; without polysorbate 80 (data not shown)): 0.027 % w/w
efficiency of DGME at dissolving lemuteporfin relative to benzyl alcohol ([2]; DGME versus benzyl alcohol): about 20%
amount of lemuteporfin that can be solubilized in benzyl alcohol ([2]; benzyl alcohol, following heating): approximately 2.5 % w/w
Apparent Solubility, % w/w Lemuteporfin ([2]; solvent % w/w: Benzyl Alcohol 30, Ethanol (190) 70): 0.455 % w/w
Apparent Solubility, % w/w Lemuteporfin ([2]; solvent % w/w: Benzyl Alcohol 30, Oleyl Alcohol 70): 0.166 % w/w
Apparent Solubility, % w/w Lemuteporfin ([2]; solvent % w/w: Benzyl Alcohol 40, Isopropyl Myristate 60): 0.090 % w/w
Apparent Solubility, % w/w Lemuteporfin ([2]; solvent % w/w: Benzyl Alcohol 50, Ethanol (190) 50): 0.453 % w/w
Apparent Solubility, % w/w Lemuteporfin ([2]; solvent % w/w: Benzyl Alcohol 50, Oleic Acid 50): 0.409 % w/w
Apparent Solubility, % w/w Lemuteporfin ([2]; solvent % w/w: Benzyl Alcohol 50, Oleyl Alcohol 50): 0.228 % w/w
Apparent Solubility, % w/w Lemuteporfin ([2]; solvent % w/w: Benzyl Alcohol 50, Propylene Glycol 50): 0.494 % w/w
Apparent Solubility, % w/w Lemuteporfin ([2]; solvent % w/w: Benzyl Alcohol 90, Isopropyl Myristate 10): 2.30 % w/w
Apparent Solubility, % w/w Lemuteporfin ([2]; solvent % w/w: Benzyl Alcohol 90, Oleic Acid 10): 2.33 % w/w
Apparent Solubility, % w/w Lemuteporfin ([2]; solvent % w/w: Benzyl Alcohol 90, Oleyl Alcohol 5, Oleic Acid 5): 2.22 % w/w
Apparent Solubility, % w/w Lemuteporfin ([2]; solvent % w/w: Benzyl Alcohol 90, Oleyl Alcohol 10): 2.24 % w/w
Apparent Solubility, % w/w Lemuteporfin ([2]; solvent % w/w: Benzyl Alcohol 100): 2.55 % w/w
Apparent Solubility, % w/w Lemuteporfin ([2]; solvent % w/w: DGME 45, Benzyl Alcohol 45, Oleyl Alcohol 5, Oleic Acid 5): 1.373 % w/w
Apparent Solubility, % w/w Lemuteporfin ([2]; solvent % w/w: DGME 50, Benzyl Alcohol 15, Oleic Acid 35): 0.230 % w/w
Apparent Solubility, % w/w Lemuteporfin ([2]; solvent % w/w: DGME 50, Benzyl Alcohol 15, Oleyl Alcohol 35): 0.200 % w/w
Apparent Solubility, % w/w Lemuteporfin ([2]; solvent % w/w: DGME 50, Benzyl Alcohol 50): 1.57 % w/w
Apparent Solubility, % w/w Lemuteporfin ([2]; solvent % w/w: DGME 52, Benzyl Alcohol 16, Oleyl Alcohol 16, Oleic Acid 16): 0.210 % w/w
Apparent Solubility, % w/w Lemuteporfin ([2]; solvent % w/w: DGME 65, Oleyl Alcohol 17.5, Oleic Acid 17.5): 0.271 % w/w
Apparent Solubility, % w/w Lemuteporfin ([2]; solvent % w/w: DGME 65, Oleyl Alcohol 35): 0.430 % w/w
Apparent Solubility, % w/w Lemuteporfin ([2]; solvent % w/w: DGME 90, Isopropyl Myristate 10): 0.430 % w/w
Apparent Solubility, % w/w Lemuteporfin ([2]; solvent % w/w: DGME 90, Oleyl Alcohol 5, Oleic Acid 5): 0.420 % w/w
Apparent Solubility, % w/w Lemuteporfin ([2]; solvent % w/w: DGME 90, Oleyl Alcohol 10): 0.420 % w/w
Substance: lemuteporfin
